# How the values were obtained:
# [1] = target: T1, FcγRI on IIA1.6 cells and soluble recombinant human PSMA (Homo sapiens, UniProt P12314+Q04609); experiment: Ternary complex formation between FcγRI expressing IIA1.6 cells and soluble PSMA; assay type: binding; details: probed with phycoerythrin anti-PSMA antibody
# T1 construct: soluble recombinant human PSMA; Avi-tag; expressed in transfected cells; host or cells: IIA1.6 cells (FcγRI); PSMA added as soluble recombinant protein
# Protocol: The inventors next evaluated SyAM-P1's ability to induce ternary complex formation, using soluble PSMA and FcγRI expressing cells (IIA1.6 cells) (FIG. 3c). The binding of PSMA to the cells was probed with a phycoerythrin anti-PSMA antibody, and was analyzed using flow cytometry.
# FcγRI = target: T2, FcγRI (Homo sapiens, UniProt P12314); experiment: IIA1.6 FcγRI expressing cell binding assay; details: biotin-functionalized compound, fluorescent streptavidin
# T2 construct: host or cells: IIA1.6 cells
# Protocol: Peptide dilutions have been prepared in DMSO usually starting form 1 mM stock solution with further 10 fold dilution. Cells IIa1.6 stably transfected with FcγRIA/γ-chain and non-transfected IIa1.6 cells used as isogenic negative control, were grown to approximately 1.5-2×10^6 cells/mL density, spun down and reconstituted in RPMI 1640 medium without phenol red, supplemented with 10% FBS and Pen/Strep mixture to cell density 1×10^6 cells/mL. A 100 uL aliquot of cells was further transferred into an eppendorf tube and left to cool on ice for 5-10 minutes. Following this 1 uL of peptide dissolved in DMSO was added to the cells, bringing final concentration of DMSO to 1%. After 1 hour incubation on ice with a peptide 5 uL of Streptavidin-Alexafluor 488 (2 mg/mL) was added to the cells and left incubating on ice for 30-60 minutes. After the incubation cells were washed two times with 1 mL of cold RPMI1640 medium without phenol red, supplemented with 10% FBS and Pen/Strep and finally washed once in 1 mL TBS Buffer (150 mM NaCl and 25 mM Tris, pH 7.4). Cells were resuspended in residual TBS buffer (usually ˜100 uL) and analyzed via flow cytometry with detection in the FL1 channel.
# PSMA on RM1.PGLS cells = target: T3, PSMA on RM1.PGLS cells (Homo sapiens, UniProt Q04609); experiment: Binding to PSMA on RM1.PGLS cells (flow cytometry); details: biotin-functionalized compound, fluorescent streptavidin
# T3 construct: host or cells: RM1.PGLS cells
# Text: Accordingly, the inventors first synthesized the SyAM-P1 molecule, using Fmoc solid phase peptide synthesis to connect the two moieties (FIG. 2). As a consequence of that chemical synthesis the inventors tried to determine whether linking the two moieties would influence their ability to bind their respective protein targets, in a selective manner (FIG. 3A,B). The inventors thereafter evaluated the ability of the first-generation of SyAM-P molecules, identified as SyAM-P1, to bind PSMA on RM1.PGLS cells (FIG. 3A) or FcγRI on IIA1.6 cells (FIG. 3B). These experiments were conducted using SyAM-P1 molecules that were functionalized with biotin, and the bound SyAM-P1 was detected using a fluorescently labeled streptavidin, via flow-cytometry.
# The binding of each SyAm derivative to PSMA was evaluated on PSMA-coated beads. 6 μm streptavidin labeled beads (Polysciences) were incubated with 400 μg/ml recombinant avi-tagged-PSMA protein for 30 minutes. Beads were washed twice with PBS, blocked with 1 mg/ml biotin for 30 minutes and then washed twice with TBS-A. 10^5 beads were incubated with a dilution series of SyAm ranging from 1 μM-100 pM. Streptavidin-Alexa467 (Invitrogen) was added to a final concentration of 3.3 μM. Samples were incubated on ice for 30 minutes, washed twice with DPBS, and evaluated by an Accuri C6 flow cytometer. […]
# RM1.PGLS cells [2] = experiment: Superoxide burst (lucigenin) by primed U937 cells against RM1.PGLS cells; assay type: cell-based; details: IFN-γ primed U937 effectors
# Text: Since SyAM-P1 was able to induce effector-cell mediated responses against target protein coated beads, the inventors then evaluated if the molecule can elicit the effects against PSMA expressing cells. To that end, the inventors evaluated the SyAM-P1 induced immune responses by primed U937 effector cells against PSMA expressing RM1.PGLS cells. They tested the U937-mediated immune effects by evaluating both superoxide burst and phagocytosis of effector cells, analogous to the protein coated bead experiments. In this experiment, IFN-γ primed U937 cells were incubated with PSMA expressing RM1.PGLS cells, and treated with various concentrations of SyAM-P1. The resulting superoxide burst response was measured using the lucigenin assay (data not shown). Additionally, primed U937 cells (stained with DiD, an FL4 membrane dye) were incubated with target RM1.PGLS cells (stained with […], an FL1 membrane dye), in the presence of various concentrations of SyAM-P 1. The resulting phagocytosis—indicated by FL1 and FL4 double positive cells—was measured using two-color flow-cytometry. As a positive control, ARM-P8 combined with anti-DNP antibodies was utilized. […] The positive response seen with the Arm-P8 control, could potentially be attributed to the ability of antibodies to ligate both FcγRI and FcγRIIA on the immune effector cells, increasing immune signaling and phagocytic responses.
# PSMA coated beads = experiment: ROS production (superoxide burst, lucigenin) by primed U937 cells against PSMA coated beads; assay type: cell-based; details: PSMA labeled beads, target dependent
# Protocol: Three days before the experiments, a plate of U937 cells (approximately 60% confluent) was passed into a new Petri dish (10 mL colored RPMI growth media total volume). IFN-γ (20 μL, 100 μg/mL in DPBS) was added, and the cells were maintained in an incubator (37° C., 24 h). The cells were pelleted after 24 hours and resuspended in 10 mL of IFN-γ (20 uL, 100 ug/mL in DPBS) and maintained in an incubator (37° C., 24 h)
# For ROS production cells were resuspended in RPMI growth media (10 mL), and split equally into two Petri dishes. To each dish were added additional colored RPMI growth media (5 mL) and IFN-γ (20 μL, 100 μg/mL in DPBS), and maintained in an incubator (37° C., 24 h)
# Primed U937 were suspended in color-free ADCP media at a concentration of 3×10^5 U937 cells and mixed with 10^5 PSMA coated beads and various concentrations of molecules in a 96 well plate in a volume of 90 uL. To each well was added 10 μl of 2.5 mM lucigenin (Tokyo Chemicals) solution to bring the total volume to 100 μl. The plate was centrifuged at 200 rcf for 2 minutes (PLATE SPINNER). The chemiluminescence was then measured at two minute intervals by plate reader (Biotek Synergy 2) for 60 to 90 minutes.
# RM1.PGLS cells [3] = experiment: Phagocytosis of PSMA expressing RM1.PGLS cells by IFN-γ primed U937 cells; assay type: cell-based; details: IFN-γ primed U937 effectors
# Protocol: Target cell passing: Three days before the experiments, a plate of target cells, RM1.PGLS cells were passed into a new flask.
# Effector cell priming: Three days before the experiments, a plate of U937 cells (approximately 60% confluent) was passed into a new Petri dish (10 mL colored ADCP media total volume). IFN-γ (20 μL, 100 μg/mL in DPBS) was added, and the cells were maintained in an incubator (37° C., 24 h). The cells were transferred into a Falcon tube, and DiD (19 uL, final concentration=1.9 μM) was added. The cells were maintained in an incubator (37° C., 30 min), pelleted, aspirated, resuspended in colored ADCP media (10 mL), and split equally into two Petri dishes. To each dish were added additional colored ADCP media (5 mL) and IFN-γ (20 μL, 100 μg/mL in DPBS), and the cells were maintained in an incubator (37° C., 24 h).
# Target cell preparation: To a plate of target cells (60-80% confluent RM1.PGLS cells 10 mL total media volume) was added DiO (20 μL, final concentration=2 μM). The cells were maintained in an incubator (37° C., 30 min), aspirated, and washed with colored ADCP media (3×10 mL). Colored ADCP media (10 mL) was added. The cells were maintained in an incubator (37° C., 2 h), detached and resuspended in color-free ADCP media at a concentration of 0.5 million cells per mL.
# Effector cell preparation: Both dishes of primed U937 cells were transferred into a Falcon tube, pelleted, aspirated, resuspended in color-free ADCP media (10 mL), counted, and diluted with color-free ADCP media to give a final concentration of 2 million cells per mL.
# Phagocytosis: All conditions were run in triplicate. For each experiment, into a sterile 2 mL Eppendorf tube were added color-free ADCP media (25 μL) containing either various concentrations of SyAM-Px or ARM-P8/Anti-DNP antibody, target cells (25 μL=12,500 cells), and effector cells (50 μL=100,000 cells), to give an effector-to-target ratio of 8:1. Tubes were gently agitated by hand. The cells were pelleted (2 min, 1100 rpm). The tubes were opened, maintained in an incubator (37° C., 1 h), resuspended by briefly agitating with a vortex, and analyzed by flow cytometry.
# T2 sequence (P12314 16-374): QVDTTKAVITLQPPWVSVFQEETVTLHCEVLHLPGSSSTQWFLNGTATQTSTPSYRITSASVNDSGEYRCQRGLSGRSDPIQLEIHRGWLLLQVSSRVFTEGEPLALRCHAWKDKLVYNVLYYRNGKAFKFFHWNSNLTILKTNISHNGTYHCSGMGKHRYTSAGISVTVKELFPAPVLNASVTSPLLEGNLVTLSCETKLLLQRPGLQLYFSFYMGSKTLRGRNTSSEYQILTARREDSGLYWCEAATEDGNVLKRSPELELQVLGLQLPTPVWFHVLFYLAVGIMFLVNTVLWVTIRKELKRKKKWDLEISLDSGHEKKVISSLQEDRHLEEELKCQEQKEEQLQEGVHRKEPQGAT
# T2 sequence (P30273 19-86 partner): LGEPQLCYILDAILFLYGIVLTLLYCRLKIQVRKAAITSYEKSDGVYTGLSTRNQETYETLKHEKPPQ
# T1 sequence (P12314 16-374): as the sequence (P12314 16-374) above
# T1 sequence (Q04609 44-750 limits assumed): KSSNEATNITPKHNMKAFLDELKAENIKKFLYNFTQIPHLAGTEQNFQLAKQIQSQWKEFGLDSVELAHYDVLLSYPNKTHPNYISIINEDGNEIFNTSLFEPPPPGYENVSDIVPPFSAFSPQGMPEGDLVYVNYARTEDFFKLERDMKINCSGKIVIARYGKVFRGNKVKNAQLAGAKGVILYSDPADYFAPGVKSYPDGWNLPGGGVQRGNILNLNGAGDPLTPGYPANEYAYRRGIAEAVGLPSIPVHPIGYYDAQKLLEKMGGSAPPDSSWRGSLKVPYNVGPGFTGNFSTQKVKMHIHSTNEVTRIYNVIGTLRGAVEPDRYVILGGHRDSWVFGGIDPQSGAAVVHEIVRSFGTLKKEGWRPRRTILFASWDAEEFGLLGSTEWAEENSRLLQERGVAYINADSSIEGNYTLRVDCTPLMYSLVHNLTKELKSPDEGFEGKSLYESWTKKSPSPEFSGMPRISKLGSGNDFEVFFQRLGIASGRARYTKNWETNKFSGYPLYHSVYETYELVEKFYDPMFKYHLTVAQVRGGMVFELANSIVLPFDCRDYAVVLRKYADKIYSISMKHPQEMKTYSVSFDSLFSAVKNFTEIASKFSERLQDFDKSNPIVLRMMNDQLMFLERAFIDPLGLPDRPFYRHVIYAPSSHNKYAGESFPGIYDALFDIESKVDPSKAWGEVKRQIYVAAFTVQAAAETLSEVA
# T1 sequence (P30273 19-86 partner): as the sequence (P30273 19-86 partner) above
# T3 sequence (Q04609 whole entry): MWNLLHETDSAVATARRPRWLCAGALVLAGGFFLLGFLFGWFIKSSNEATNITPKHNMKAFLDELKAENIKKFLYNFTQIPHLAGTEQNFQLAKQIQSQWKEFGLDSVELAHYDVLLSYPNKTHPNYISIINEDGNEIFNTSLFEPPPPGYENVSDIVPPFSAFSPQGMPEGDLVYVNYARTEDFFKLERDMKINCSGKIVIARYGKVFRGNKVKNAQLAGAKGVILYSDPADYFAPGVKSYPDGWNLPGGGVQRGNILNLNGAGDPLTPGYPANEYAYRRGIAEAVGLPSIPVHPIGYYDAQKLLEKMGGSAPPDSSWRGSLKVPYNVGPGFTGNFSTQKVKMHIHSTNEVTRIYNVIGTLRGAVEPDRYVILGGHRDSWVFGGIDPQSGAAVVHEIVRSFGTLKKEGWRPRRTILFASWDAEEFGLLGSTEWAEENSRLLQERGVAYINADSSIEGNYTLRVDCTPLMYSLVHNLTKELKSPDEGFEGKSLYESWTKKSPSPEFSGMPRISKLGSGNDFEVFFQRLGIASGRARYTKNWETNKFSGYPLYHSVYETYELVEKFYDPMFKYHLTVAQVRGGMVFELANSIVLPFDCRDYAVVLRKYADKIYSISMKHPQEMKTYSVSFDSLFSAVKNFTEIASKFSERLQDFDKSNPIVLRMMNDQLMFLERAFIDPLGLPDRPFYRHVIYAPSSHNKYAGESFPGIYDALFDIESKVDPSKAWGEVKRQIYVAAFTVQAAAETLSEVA
smiles,measurement,setting,value
CC(=O)N[C@H](C(=O)N[C@@H](CC(N)=O)C(=O)N[C@@H](CO)C(=O)N[C@H]1CSSC[C@@H](C(=O)NCC(=O)N[C@@H](CC(=O)O)C(=O)N[C@@H](CC(=O)O)C(=O)N[C@@H](CCCCNC(=O)CCCC[C@@H]2SC[C@@H]3NC(=O)N[C@@H]32)C(=O)NCCCCCC(=O)NCCCCCC(=O)NCCCCCC(=O)NCCCCCC(=O)NCCCCCC(=O)N[C@@H](CCCCNC(=O)CCCCc2cn(CCCC[C@H](NC(=O)N[C@@H](CCC(=O)O)C(=O)O)C(=O)O)nn2)C(=O)NCC(N)=O)NC(=O)CNC(=O)[C@H](CC(C)C)NC(=O)[C@H](CC(C)C)NC(=O)[C@H](CC(N)=O)NC(=O)[C@@H]2CCCN2C(=O)[C@H](CC(C)C)NC(=O)[C@H](CC(C)C)NC(=O)[C@H](CC(C)C)NC1=O)C(C)C [SyAM-P1],ternary complex formation,[1],mediated through SyAM-P1
same,binding to FcγRI on IIA1.6 cells,FcγRI,capability to bind to its respective targets
same,binding to PSMA on RM1.PGLS cells,PSMA on RM1.PGLS cells,capability to bind to its respective targets
same,superoxide burst against RM1.PGLS cells (in words),RM1.PGLS cells [2],unable to induce any immune responses
same,concentration at which superoxide burst is induced,PSMA coated beads,100 nM
same,phagocytosis of RM1.PGLS cells (in words),RM1.PGLS cells [3],unable to induce any immune responses

# Source: US10117943B2, “Synthetic antibody mimetic compounds (SYAMS) targeting cancer, especially prostate cancer” (YALE UNIVERSITY, priority 2013, dated 2018)
